Values of other authors as cited in patent US20170252421A1 (priority 2014, published 2017).

For CN(C)C(=N)N=C(N)N [metformin, Metformin], the “patients discontinuing the therapy due to the side effects” value (oral metformin) is given as “up to 5%”, the “patients experiencing gastrointestinal side effects” value (oral metformin) is given as “Up to 20%” and the “patients developing vitamin B12 deficiency” value (patients taking metformin) is given as 77%. The “reduction of morbidity and mortality rates” value (treating insulin resistance) was “about 30%”.
